In PubChem BioAssay AID200 (DTP/NCI, 2004):
Values joined by “and” are separate entries in the source; they are usually repeats but may differ in a detail not shown here. Equal entries are not always repeated. Toxic doses and inconclusive results are not listed.

Test system: B6C3F1 mice, B16 melanoma ip, median survival T/C
Test: NCI In Vivo Anticancer Drug Screen. Data for tumor model B16 Melanoma (intraperitoneal) in B6C3F1 mice
Details: endpoint: median survival time, schedule: Q01DX009 (ip), higher = longer survival
Outline: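 Values are T/C ratios: the measurement in treated animals divided by that in vehicle-treated controls, using survival or tumor size in mice carrying transplantable tumors.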

[1] = dose: 12.5 mg/kg/injection, vehicle: saline
[2] = dose: 25.0 mg/kg/injection, vehicle: saline
[3] = dose: 100.0 mg/kg/injection, vehicle: saline
[4] = dose: 100.0 mg/kg/injection, vehicle: Klucel (hydroxypropylcellulose) (HPC)
[5] = dose: 200.0 mg/kg/injection, vehicle: Klucel (hydroxypropylcellulose) (HPC)
[6] = dose: 400.0 mg/kg/injection, vehicle: Klucel (hydroxypropylcellulose) (HPC)
[7] = dose: 100.0 mg/kg/injection, vehicle: saline with Tween-80
[8] = dose: 200.0 mg/kg/injection, vehicle: saline with Tween-80
[9] = dose: 25.0 mg/kg/injection, vehicle: Klucel (hydroxypropylcellulose) (HPC)
[10] = dose: 50.0 mg/kg/injection, vehicle: Klucel (hydroxypropylcellulose) (HPC)

OCCN1CCN(CC/C=C2/c3ccccc3Sc3ccc(Cl)cc32)CC1
T/C (dose: 1.56 mg/kg/injection, vehicle: saline): 101 % of control
T/C (dose: 3.12 mg/kg/injection, vehicle: saline): 102 % of control
T/C (dose: 6.25 mg/kg/injection, vehicle: saline): 103 % of control and 105 % of control
T/C [1]: 93 % of control and 106 % of control
T/C [2]: 100 % of control

CSCCC(NC(=O)c1ccccc1)C(=O)O (configuration not stated)
T/C [3]: 93 % of control

CCCCOc1ccc(C(=O)SCCCN=C(N)N)cc1
T/C (dose: 3.12 mg/kg/injection, vehicle: suspension in saline): 92 % of control
T/C (dose: 6.25 mg/kg/injection, vehicle: suspension in saline): 97 % of control
T/C (dose: 25.0 mg/kg/injection, vehicle: suspension in saline): 87 % of control

CCC(C)C(=O)OC1C(=O)OC2CC3C(C)=CC(=O)C(O)C3(C)C3C4(O)OCC23C1C(C)C4O (configuration not stated)
T/C (dose: 2.5 mg/kg/injection, vehicle: saline): 160 % of control
T/C (dose: 5.0 mg/kg/injection, vehicle: saline): 176 % of control

CC(OCc1ccccc1)C(NC(=O)OC(C)(C)C)C(=O)O (configuration not stated)
T/C [4]: 92 % of control
T/C [5]: 100 % of control
T/C [6]: 96 % of control

C=C(C)C(=NC(C)(C)C)Nc1ccccc1
T/C (dose: 6.25 mg/kg/injection, vehicle: saline with Tween-80): 98 % of control
T/C (dose: 12.5 mg/kg/injection, vehicle: saline with Tween-80): 122 % of control
T/C (dose: 25.0 mg/kg/injection, vehicle: saline with Tween-80): 109 % of control
T/C (dose: 50.0 mg/kg/injection, vehicle: saline with Tween-80): 91 % of control
T/C [7]: 96 % of control
T/C [8]: 114 % of control

O=C(O)C(Cc1ccc(O)cc1)NS(=O)(=O)Cc1ccccc1 (configuration not stated)
T/C [7]: 106 % of control
T/C [8]: 101 % of control
T/C (dose: 400.0 mg/kg/injection, vehicle: saline with Tween-80): 100 % of control

CN(C)C(=O)SC1=C(c2c(Cl)cccc2Cl)C(=O)c2ccccc21
T/C [9]: 98 % of control
T/C [10]: 96 % of control
T/C [4]: 101 % of control
T/C [5]: 101 % of control

COC1=C(C)C(=O)C2=C(C1=O)C1C3CC4=C(C(=O)C(OC)=C(C)C4=O)C(CNC(=O)C(C)=O)N3C(C#N)C(C2)N1C (configuration not stated)
T/C (dose: 0.12 mg/kg/injection, vehicle: Klucel (hydroxypropylcellulose) (HPC)): 95 % of control
T/C (dose: 0.25 mg/kg/injection, vehicle: Klucel (hydroxypropylcellulose) (HPC)): 103 % of control and 106 % of control
T/C (dose: 0.5 mg/kg/injection, vehicle: Klucel (hydroxypropylcellulose) (HPC)): 99 % of control and 106 % of control
T/C (dose: 1.0 mg/kg/injection, vehicle: Klucel (hydroxypropylcellulose) (HPC)): 115 % of control and 103 % of control

O=C(O)CP(=O)(O)O
T/C [1]: 100 % of control
T/C [2]: 102 % of control and 107 % of control
T/C (dose: 50.0 mg/kg/injection, vehicle: saline): 102 % of control and 106 % of control
T/C [3]: 118 % of control and 121 % of control
T/C (dose: 200.0 mg/kg/injection, vehicle: saline): 164 % of control
T/C (dose: 400.0 mg/kg/injection, vehicle: saline): 189 % of control and 227 % of control
T/C (dose: 800.0 mg/kg/injection, vehicle: saline): 206 % of control and 255 % of control

O=C(NC(=S)Nc1ccccc1)c1ccccc1
T/C (dose: 9.4 mg/kg/injection, vehicle: Klucel (hydroxypropylcellulose) (HPC)): 99 % of control
T/C (dose: 18.75 mg/kg/injection, vehicle: Klucel (hydroxypropylcellulose) (HPC)): 94 % of control
T/C (dose: 37.5 mg/kg/injection, vehicle: Klucel (hydroxypropylcellulose) (HPC)): 101 % of control
T/C (dose: 75.0 mg/kg/injection, vehicle: Klucel (hydroxypropylcellulose) (HPC)): 103 % of control

CCCC(NC(=O)OCc1ccccc1)C(=O)NC(Cc1c[nH]c2ccccc12)C(=O)O (configuration not stated)
T/C [4]: 107 % of control
T/C [5]: 99 % of control
T/C [6]: 100 % of control

CCCC(NC(=O)OCc1ccccc1)C(=O)NC(C)C(=O)O (configuration not stated)
T/C [9]: 101 % of control
T/C [10]: 104 % of control
T/C [4]: 102 % of control

C=C1C(=O)OCC1C(=O)O (configuration not stated)
T/C (dose: 4.0 mg/kg/injection, vehicle: saline): 102 % of control and 103 % of control
T/C (dose: 8.0 mg/kg/injection, vehicle: saline): 102 % of control
T/C (dose: 16.0 mg/kg/injection, vehicle: saline): 88 % of control and 93 % of control
T/C (dose: 32.0 mg/kg/injection, vehicle: saline): 93 % of control
